From US20070213339A1 (Bayer Pharmaceuticals Corporation, priority 2004, published 2007)

What follows are compounds tested on Colo205 human colon carcinoma cell line (assay: In vitro tumor cell proliferation assay (MTS, CellTiter 96 Aqueous One Solution)). Details: COLO 205, Colo205 cells, 72 hours compound exposure, MTS absorbance at 490 nm, read-out: IC50 (concentration of test compound required to inhibit proliferation of 50% of the cells).
Assay type: cell-based
How it was run: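 Colo205 cells seeded at 2000 cells/well in RPMI-1640 with 10% serum, exposed to compound for 72 h at 37 °C, 5% CO2, in a 5-point dose-response up to 10-20 μM. Viability read by MTS absorbance at 490 nm; IC50 from background-corrected percent inhibition by linear regression.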

IC50 [nM] | Structure (SMILES)
< 500 | O=C(O)c1cn(-c2ccc(CN3CCCC3)cc2)c2c(OC(F)(F)F)c(N3CCN(c4ccccn4)CC3)c(F)cc2c1=O [Example 124, 6-fluoro-4-oxo-7-(4-pyridin-2-yl-piperazin-1-yl)-1-[4-(pyrrolidin-1-ylmethyl)phenyl]-8-(trifluoromethoxy)-1,4-dihydroquinoline-3-carboxylic acid]
< 500 | Cc1cccnc1N1CCN(c2c(F)cc3c(=O)c(C(=O)O)cn(-c4ccc(CN5CCCC5)cc4)c3c2OC(F)(F)F)CC1 [Example 122, 6-fluoro-7-[4-(3-methylpyridin-2-yl)-piperazin-1-yl]-4-oxo-1-[4-(pyrrolidin-1-ylmethyl)phenyl]-8-(trifluoromethoxy)-1,4-dihydroquinoline-3-carboxylic acid]
< 500 | O=C(O)c1cn(-c2ccc(CNC3CCCC3)cc2)c2c(Cl)c(N3CCN(c4ncccn4)CC3)c(F)cc2c1=O [Example 57, 8-chloro-1-{4-[(cyclopentylamino)methyl]-phenyl}-6-fluoro-4-oxo-7-(4-pyrimidin-2-ylpiperazin-1-yl)-1,4-dihydroquinoline-3-carboxylic acid]
< 500 | CN(C)Cc1ccc(-n2cc(C(=O)O)c(=O)c3cc(F)c(N4CCN(c5ncccc5C#N)CC4)c(OC(F)(F)Cl)c32)cc1 [Example 158, 8-[chloro(difluoro)methoxy]-7-[4-(3-cyanopyridin-2-yl)piperazin-1-yl]-1-{4-[(dimethylamino)methyl]phenyl}-6-fluoro-4-oxo-1,4-dihydroquinoline-3-carboxylic acid]
< 500 | COc1c(N2CCN(c3ncccn3)CC2)c(F)cc2c(=O)c(C(=O)O)cn(-c3ccc(CN(C)C)cc3)c12 [Example 96, 1-{4-[(dimethylamino)methyl]phenyl}-6-fluoro-8-methoxy-4-oxo-7-(4-pyrimidin-2-ylpiperazin-1-yl)-1,4-dihydroquinoline-3-carboxylic acid]
2000 to 20000 | CON(C)Cc1ccc(-n2cc(C(=O)O)c(=O)c3cc(F)c(N4CCN(c5ccccn5)CC4)c(Cl)c32)cc1 [Example 49, 8-chloro-6-fluoro-1-(4-{[methoxy(methyl)-amino]methyl}phenyl)-4-oxo-7-(4-pyridin-2-ylpiperazin-1-yl)-1,4-dihydroquinoline-3-carboxylic acid]
500 to 2000 | CN(C)Cc1ccc(-n2cc(C(=O)O)c(=O)c3cc(F)c(N4CCN(c5ncccn5)CC4)c(OC(F)(F)Cl)c32)cc1 [Example 157, 8-[chloro(difluoro)methoxy]-1-{4-[(dimethylamino)methyl]phenyl}-6-fluoro-4-oxo-7-(4-pyrimidin-2-ylpiperazin-1-yl)-1,4-dihydroquinoline-3-carboxylic acid]
< 500 | N#Cc1cccnc1N1CCN(c2c(F)cc3c(=O)c(C(=O)O)cn(-c4ccc(CN5CCCC5)cc4)c3c2OC(F)(F)Cl)CC1 [Example 149, 8-[chloro(difluoro)methoxy]-7-[4-(3-cyanopyridin-2-yl)piperazin-1-yl]-6-fluoro-4-oxo-1-[4-(pyrrolidin-1-ylmethyl)-phenyl]-1,4-dihydroquinoline-3-carboxylic acid]
< 500 | CN(Cc1ccc(-n2cc(C(=O)O)c(=O)c3cc(F)c(N4CCN(c5ncccn5)CC4)c(Cl)c32)cc1)C1CCCCC1 [Example 62, 8-chloro-1-(4-{[cyclohexyl(methyl)amino]-methyl}phenyl)-6-fluoro-4-oxo-7-(4-pyrimidin-2-ylpiperazin-1-yl)-1,4-dihydroquinoline-3-carboxylic acid]
< 500 | O=C(O)c1cn(-c2ccc(CNC3CCCC3)cc2)c2c(OC(F)(F)F)c(N3CCN(c4ccc(F)cc4)CC3)c(F)cc2c1=O [Example 182, 1-(4-cyclopentylaminomethyl-phenyl)-6-fluoro-7-[4-(4-fluorophenyl)-piperazine-1-yl]-4-oxo-8-trifluoromethoxy-1,4-dihydroquinoline-3-carboxylic acid]
2000 to 20000 | COc1c(N2CCN(c3ccccc3[N+](=O)[O-])CC2)c(F)cc2c(=O)c(C(=O)O)cn(-c3ccc(CN(C)C)cc3)c12 [Example 104, 1-{4-[(dimethylamino)methyl]phenyl}-6-fluoro-8-methoxy-7-[4-(2-nitrophenyl)piperazin-1-yl]-4-oxo-1,4-dihydroquinoline-3-carboxylic acid]
< 500 | CCN(C)Cc1ccc(-n2cc(C(=O)O)c(=O)c3cc(F)c(N4CCN(c5ncccn5)CC4)c(OC(F)(F)Cl)c32)cc1 [Example 165, 8-[chloro(difluoro)methoxy]-1-(4-{[ethyl(methyl)amino]methyl}phenyl)-6-fluoro-4-oxo-7-(4-pyrimidin-2-ylpiperazin-1-yl)-1,4-dihydroquinoline-3-carboxylic acid]
< 500 | COc1c(N2CCN(c3ccccc3)CC2)c(F)cc2c(=O)c(C(=O)O)cn(-c3ccc(CN(C)C)cc3)c12 [Example 97, 1-{4-[(dimethylamino)methyl]phenyl}-6-fluoro-8-methoxy-4-oxo-7-(4-phenylpiperazin-1-yl)-1,4-dihydroquinoline-3-carboxylic acid]
2000 to 20000 | O=C(O)c1cn(-c2ccc(CNCC3CCCCC3)cc2)c2c(Cl)c(N3CCN(c4ncccn4)CC3)c(F)cc2c1=O [Example 190, 8-chloro-1-{4-[(4-cyclohelmethyl-amino)-methyl]-phenyl}-6-fluoro-4-oxo-7-(4-pyrimidin-2-yl-piperazin-1-yl)-1,4-dihydroquinoline-3-carboxylic acid]
< 500 | COc1c(N2CCN(c3ccccc3SC)CC2)c(F)cc2c(=O)c(C(=O)O)cn(-c3ccc(CN4CCCC4)cc3)c12 [Example 88, 6-fluoro-8-methoxy-7-{4-[2-(methylthio)phenyl]-piperazin-1-yl}-4-oxo-1-[4-(pyrrolidin-1-ylmethyl)phenyl]-1,4-dihydroquinoline-3-carboxylic acid]
500 to 2000 | COc1c(N2CCN(c3ccc(Cl)c(Cl)c3)CC2)c(F)cc2c(=O)c(C(=O)O)cn(-c3ccc(CN4CCCC4)cc3)c12 [Example 86, 7-[4-(3,4-dichlorophenyl)piperazin-1-yl]-6-fluoro-8-methoxy-4-oxo-1-[4-(pyrrolidin-1-ylmethyl)phenyl]-1,4-dihydroquinoline-3-carboxylic acid]
< 500 | O=C(O)c1cn(-c2ccc(CNC3CCC3)cc2)c2c(Cl)c(N3CCN(c4ccccn4)CC3)c(F)cc2c1=O [Example 58, 8-chloro-1-{4-[(cyclobutylamino)methyl]-phenyl}-6-fluoro-4-oxo-7-(4-pyridin-2-ylpiperazin-1-yl)-1,4-dihydroquinoline-3-carboxylic acid]
500 to 2000 | Cc1cccnc1N1CCN(c2c(F)cc3c(=O)c(C(=O)O)cn(-c4ccc(CN(C)C)cc4)c3c2OC(F)(F)F)CC1 [Example 129, 1-{4-[(dimethylamino)methyl]phenyl}-6-fluoro-7-[4-(3-methylpyridin-2-yl)piperazin-1-yl]-4-oxo-8-(trifluoromethoxy)-1,4-dihydroquinoline-3-carboxylic acid]
< 500 | O=C(O)c1cn(-c2ccc(CN3CCCC3)cc2)c2c(Cl)c(N3CCN(c4ncccn4)CC3)c(F)cc2c1=O [Example 6, 8-chloro-6-fluoro-4-oxo-7-(4-pyrimidin-2-ylpiperazin-1-yl)-1-[4-(pyrrolidin-1-ylmethyl)phenyl]-1,4-dihydroquinoline-3-carboxylic acid]
